16 compounds from patent publication US12139492B2 (Endotarget Inc., priority 2021, dated 2024) can be followed below.

Read-outs that look alike come from different tables or passages of the source.

Experiment [1] relates to Mino cells. Nature of the experiment: Antiproliferative effect, MTS cell viability assay, Mino cells. The format is cell-based. Conditions: Homo sapiens, Mino mantle cell lymphoma cells, read-out: IC50 (anti-proliferation) Mino cells. In a few lines:
(§1)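 Mino and JeKo-1 mantle B-cell lymphoma lines were exposed to compound at 0, 0.001, 0.01, 0.1, 1 and 10 μM for 72 h. Viability was read by MTS reduction to formazan, measured as absorbance at 490 nm.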

The test system of experiment [2] is JeKo-1 cells. Kind of experiment: Antiproliferative effect, MTS cell viability assay, JeKo-1 cells. The settings on record: Homo sapiens; JeKo-1 mantle cell lymphoma cells; read-out: IC50 (anti-proliferation) JeKO-1 cells. It counts as cell-based. In short, it runs like this: as §1
Experiment [3] has as its target BTK (Homo sapiens, UniProt Q06187). Kind of experiment: Degradation of BTK protein in Namalwa cells (Western blot; DC50, Dmax). The settings on record: for DC50: read-out: DC50 (BTK degradation), concentration giving 50% reduction of BTK expression level, cell line not given; for Dmax: read-out: Dmax (BTK degradation).

BTK, sequence (Q06187 whole entry): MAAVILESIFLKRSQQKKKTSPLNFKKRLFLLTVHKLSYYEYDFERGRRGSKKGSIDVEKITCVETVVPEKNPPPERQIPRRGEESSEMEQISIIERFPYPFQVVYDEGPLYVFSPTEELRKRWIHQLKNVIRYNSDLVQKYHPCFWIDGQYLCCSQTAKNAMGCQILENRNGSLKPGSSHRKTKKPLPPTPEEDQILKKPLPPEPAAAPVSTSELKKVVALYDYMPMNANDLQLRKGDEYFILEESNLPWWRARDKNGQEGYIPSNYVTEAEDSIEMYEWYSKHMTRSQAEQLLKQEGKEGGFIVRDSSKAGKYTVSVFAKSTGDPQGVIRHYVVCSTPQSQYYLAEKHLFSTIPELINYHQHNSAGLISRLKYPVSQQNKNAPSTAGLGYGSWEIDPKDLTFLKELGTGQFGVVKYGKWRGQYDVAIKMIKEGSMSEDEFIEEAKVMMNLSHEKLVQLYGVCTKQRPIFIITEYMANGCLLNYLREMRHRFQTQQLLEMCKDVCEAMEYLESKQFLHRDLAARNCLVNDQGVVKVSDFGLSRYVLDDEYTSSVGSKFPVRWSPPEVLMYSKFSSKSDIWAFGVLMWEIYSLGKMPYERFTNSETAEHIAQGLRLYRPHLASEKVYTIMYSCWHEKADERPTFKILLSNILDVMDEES

As for `Nc1ncnc2c1c(-c1ccc(Oc3ccccc3)cc1)nn2C1CCN(CC2CCN(CC3CCN(c4ccc5c(c4)oc(=O)n5C4CCC(=O)NC4=O)CC3)C2)CC1` (stereo not shown) [Compound 541, 3-(6-(4-((3-((4-(4-amino-3-(4-phenoxyphenyl)-1H-pyrazolo[3,4-d]pyrimidin-1-yl)piperidin-1-yl)methyl)pyrrolidin-1-yl)methyl)piperidin-1-yl)-2-oxobenzo[d]oxazol-3(2H)-yl)piperidine-2,6-dione], the IC50 in experiment [1] (MINO) and in experiment [2] was 1000 to 10000 nM throughout. Further, the DC50 in experiment [3] fell in the range of 10 to 50 nM. Besides, the Dmax in experiment [3] was above 75%.
Regarding `Nc1ncnc2c1c(-c1ccc(Oc3ccccc3)cc1)nn2C1CCN(CCN2CCC(CN3CCC(c4ccc5c(c4)oc(=O)n5C4CCC(=O)NC4=O)CC3)C2)CC1` (stereo not shown) [Compound 542, 3-(6-(1-((1-(2-(4-(4-amino-3-(4-phenoxyphenyl)-1H-pyrazolo[3,4-d]pyrimidin-1-yl)piperidin-1-yl)ethyl)pyrrolidin-3-yl)methyl)piperidin-4-yl)-2-oxobenzo[d]oxazol-3(2H)-yl)piperidine-2,6-dione], the IC50 in experiment [1] (MINO) is 1000 to 10000 nM. Moreover, the IC50 in experiment [2] fell in the range of 1000 to 10000 nM. Besides, in experiment [3], the DC50 is 10 to 50 nM and the Dmax is above 75%.
On to `Nc1ncnc2c1c(-c1ccc(Oc3ccccc3)cc1)nn2C1CCN(CCCN2CCC(CN3CCC(c4ccc5c(c4)oc(=O)n5C4CCC(=O)NC4=O)CC3)C2)CC1` (stereo not shown) [Compound 543, 3-(6-(1-((1-(3-(4-(4-amino-3-(4-phenoxyphenyl)-1H-pyrazolo[3,4-d]pyrimidin-1-yl)piperidin-1-yl)propyl)pyrrolidin-3-yl)methyl)piperidin-4-yl)-2-oxobenzo[d]oxazol-3(2H)-yl)piperidine-2,6-dione], for which the IC50 in experiment [1] (MINO) and in experiment [2] was 1000 to 10000 nM in each case. Further, the DC50 in experiment [3] was 10 to 50 nM. The Dmax in experiment [3] is above 75%.
For the compound `Nc1ncnc2c1c(-c1ccc(Oc3ccccc3)cc1)nn2C1CCN(CC2CCN(CC3CCN(c4ccc5c(c4)oc(=O)n5C4CCC(=O)NC4=O)CC3)CC2)CC1` (stereo not shown) [Compound 544, 3-(6-(4-((4-((4-(4-amino-3-(4-phenoxyphenyl)-1H-pyrazolo[3,4-d]pyrimidin-1-yl)piperidin-1-yl)methyl)piperidin-1-yl)methyl)piperidin-1-yl)-2-oxobenzo[d]oxazol-3(2H)-yl)piperidine-2,6-dione], the IC50 in experiment [1] (MINO) was in the range of 1000 to 10000 nM. The IC50 in experiment [2] was 1000 to 10000 nM. In addition, in experiment [3], the DC50 lay within 10 to 50 nM and the Dmax was above 90%.
Turning to `Nc1ncnc2c1c(-c1ccc(Oc3ccccc3)cc1)nn2C1CCN(CCN2CCC(CN3CCC(c4ccc5c(c4)oc(=O)n5C4CCC(=O)NC4=O)CC3)CC2)CC1` (stereo not shown) [Compound 545, 3-(6-(1-((1-(2-(4-(4-amino-3-(4-phenoxyphenyl)-1H-pyrazolo[3,4-d]pyrimidin-1-yl)piperidin-1-yl)ethyl)piperidin-4-yl)methyl)piperidin-4-yl)-2-oxobenzo[d]oxazol-3(2H)-yl)piperidine-2,6-dione], in experiment [1] (MINO), the IC50 was below 1000 nM. Also, in experiment [2], the IC50 was 1000 to 10000 nM. In addition, in experiment [3], the half-maximal degradation concentration (DC50) lay within 10 to 50 nM and the greatest degradation seen (Dmax) is above 90%.
For `Nc1ncnc2c1c(-c1ccc(Oc3ccccc3)cc1)nn2C1CCN(CCCN2CCC(CN3CCC(c4ccc5c(c4)oc(=O)n5C4CCC(=O)NC4=O)CC3)CC2)CC1` (stereo not shown) [Compound 546, 3-(6-(1-((1-(3-(4-(4-amino-3-(4-phenoxyphenyl)-1H-pyrazolo[3,4-d]pyrimidin-1-yl)piperidin-1-yl)propyl)piperidin-4-yl)methyl)piperidin-4-yl)-2-oxobenzo[d]oxazol-3(2H)-yl)piperidine-2,6-dione] the same measures were 1000 to 10000 nM, below 1000 nM, below 10 nM and above 90%.
For `Nc1ncnc2c1c(-c1ccc(Oc3ccccc3)cc1)nn2C1CCN(CC2CCN(CC3CCN(c4ccc(N5CCC(=O)NC5=O)cc4)CC3)C2)CC1` (stereo not shown) [Compound 547, 1-(4-(4-((3-((4-(4-amino-3-(4-phenoxyphenyl)-1H-pyrazolo[3,4-d]pyrimidin-1-yl)piperidin-1-yl)methyl)pyrrolidin-1-yl)methyl)piperidin-1-yl)phenyl)dihydropyrimidine-2,4(1H,3H)-dione] the same measures were 1000 to 10000 nM, 1000 to 10000 nM, below 10 nM and above 90%.
For `Nc1ncnc2c1c(-c1ccc(Oc3ccccc3)cc1)nn2C1CCN(CCN2CCC(CN3CCC(c4ccc(N5CCC(=O)NC5=O)cc4)CC3)C2)CC1` (stereo not shown) [Compound 548, 1-(4-(1-((1-(2-(4-(4-amino-3-(4-phenoxyphenyl)-1H-pyrazolo[3,4-d]pyrimidin-1-yl)piperidin-1-yl)ethyl)pyrrolidin-3-yl)methyl)piperidin-4-yl)phenyl)dihydropyrimidine-2,4(1H,3H)-dione] the same measures were below 1000 nM, below 1000 nM, below 10 nM and above 75%.
For `Nc1ncnc2c1c(-c1ccc(Oc3ccccc3)cc1)nn2C1CCN(CCN2CCC(CN3CCN(c4ccc(N5CCC(=O)NC5=O)cc4)CC3)C2)CC1` (stereo not shown) [Compound 549, 1-(4-(4-((1-(2-(4-(4-amino-3-(4-phenoxyphenyl)-1H-pyrazolo[3,4-d]pyrimidin-1-yl)piperidin-1-yl)ethyl)pyrrolidin-3-yl)methyl)piperazin-1-yl)phenyl)dihydropyrimidine-2,4(1H,3H)-dione], the IC50 in experiment [1] (MINO) is below 1000 nM. In experiment [2], the IC50 was below 1000 nM. In experiment [3], the 50% degradation concentration (DC50) was below 10 nM and the Dmax was above 90%.
For `Nc1ncnc2c1c(-c1ccc(Oc3ccccc3)cc1)nn2C1CCN(CCCN2CCC(CN3CCC(c4ccc(N5CCC(=O)NC5=O)cc4)CC3)C2)CC1` (stereo not shown) [Compound 550, 1-(4-(1-((1-(3-(4-(4-amino-3-(4-phenoxyphenyl)-1H-pyrazolo[3,4-d]pyrimidin-1-yl)piperidin-1-yl)propyl)pyrrolidin-3-yl)methyl)piperidin-4-yl)phenyl)dihydropyrimidine-2,4(1H,3H)-dione], the IC50 in experiment [1] (MINO) and in experiment [2] was below 1000 nM in each case. In addition, in experiment [3], the DC50 lay within 10 to 50 nM. In addition, the Dmax in experiment [3] is above 90%.
Regarding `Nc1ncnc2c1c(-c1ccc(Oc3ccccc3)cc1)nn2C1CCN(CCCN2CCC(CN3CCN(c4ccc(N5CCC(=O)NC5=O)cc4)CC3)C2)CC1` (stereo not shown) [Compound 551, 1-(4-(4-((1-(3-(4-(4-amino-3-(4-phenoxyphenyl)-1H-pyrazolo[3,4-d]pyrimidin-1-yl)piperin-1-yl)propyl)pyrrolidin-3-yl)methyl)piperazin-1-yl)phenyl)dihydropyrimidine-2,4(1H,3H)-dione], the IC50 in experiment [1] (MINO) is below 1000 nM. In experiment [2], the IC50 is below 1000 nM. In experiment [3], the DC50 was in the range of 10 to 50 nM and the Dmax is above 90%.
As for `Nc1ncnc2c1c(-c1ccc(Oc3ccccc3)cc1)nn2C1CCN(CC2CCN(CC3CCN(c4ccc(N5CCC(=O)NC5=O)cc4)CC3)CC2)CC1` [Compound 552], the IC50 in experiment [1] is below 1000 nM. Besides, the IC50 in experiment [2] was below 1000 nM. Also, in experiment [3], the DC50 was below 10 nM and the maximal degradation (Dmax) was above 90%.
`Nc1ncnc2c1c(-c1ccc(Oc3ccccc3)cc1)nn2C1CCN(CCN2CCC(CN3CCC(c4ccc(N5CCC(=O)NC5=O)cc4)CC3)CC2)CC1` [Compound 553, 1-(4-(1-((1-(2-(4-(4-amino-3-(4-phenoxyphenyl)-1H-pyrazolo[3,4-d]pyrimidin-1-yl)piperidin-1-yl)ethyl)piperidin-4-yl)methyl)piperidin-4-yl)phenyl)dihydropyrimidine-2,4(1H,3H)-dione]: the IC50 in experiment [1] is below 1000 nM. Besides, in experiment [2], the IC50 was below 1000 nM. In addition, in experiment [3], the half-maximal degradation concentration (DC50) is below 10 nM and the Dmax is above 90%.
`Nc1ncnc2c1c(-c1ccc(Oc3ccccc3)cc1)nn2C1CCN(CCN2CCC(CN3CCN(c4ccc(N5CCC(=O)NC5=O)cc4)CC3)CC2)CC1` [Compound 554, 1-(4-(4-((1-(2-(4-(4-amino-3-(4-phenoxyphenyl)-1H-pyrazolo[3,4-d]pyrimidin-1-yl)piperidin-1-yl)ethyl)piperidin-4-yl)methyl)piperazin-1-yl)phenyl)dihydropyrimidine-2,4(1H,3H)-dione]: the IC50 in experiment [1] (MINO) was below 1000 nM. Also, in experiment [2], the IC50 is below 1000 nM. In experiment [3], the DC50 was below 10 nM and the Dmax is above 90%.
Consider `Nc1ncnc2c1c(-c1ccc(Oc3ccccc3)cc1)nn2C1CCN(CCCN2CCC(CN3CCC(c4ccc(N5CCC(=O)NC5=O)cc4)CC3)CC2)CC1` [Compound 555, 1-(4-(1-((1-(3-(4-(4-amino-3-(4-phenoxyphenyl)-1H-pyrazolo[3,4-d]pyrimidin-1-yl)piperidin-1-yl)propyl)piperidin-4-yl)methyl)piperidin-4-yl)phenyl)dihydropyrimidine-2,4(1H,3H)-dione], for which the IC50 in experiment [1] (MINO) was below 1000 nM. Further, the IC50 in experiment [2] is below 1000 nM. Also, in experiment [3], the DC50 was in the range of 10 to 50 nM and the Dmax was above 90%.
On to `Nc1ncnc2c1c(-c1ccc(Oc3ccccc3)cc1)nn2C1CCN(CCCN2CCC(CN3CCN(c4ccc(N5CCC(=O)NC5=O)cc4)CC3)CC2)CC1` [Compound 556, 1-(4-(4-((1-(3-(4-(4-amino-3-(4-phenoxyphenyl)-1H-pyrazolo[3,4-d]pyrimidin-1-yl)piperidin-1-yl)propyl)piperidin-4-yl)methyl)piperazin-1-yl)phenyl)dihydropyrimidine-2,4(1H,3H)-dione], for which the IC50 in experiment [1] (MINO) is below 1000 nM. For the same compound, the IC50 in experiment [2] was below 1000 nM. In experiment [3], the 50% degradation concentration (DC50) is below 10 nM and the Dmax was above 90%.
